Laboratory results taken from patent US10647747B2, “Cyclosporin derivatives and uses thereof” (S&T Global Inc., priority 2010, dated 2020).
pEC50: −log10 of the molar value. Where two headings read alike, the source gives them in different places. Values belong to the compound of their own block, whether it stands above or below them. *1 amine or outer side, *2 acyl side, *3 side chain or, on linkers, in order; H or OH if unused. Where a SMILES comes first, the peptide text is derived from it. [ ]: non-standard residue; d: D form. ξ: configuration not given here. MeBmt = C/C=C/C[C@@H](C)[C@@H](O)[C@H](NC)C(=O)O; X1 = CN([C@H](SCCCN1CCOCC1)C(=O)[*:2])[*:1]; X6 = CCN(CC)CCS[C@H](C(=O)[*:2])N(C)[*:1]; NMeIle(3ξ) = CCC(C)[C@H](NC)C(=O)O; NMeL = CN[C@@H](CC(C)C)C(=O)O; NMeV = CN[C@H](C(=O)O)C(C)C; Abu = CC[C@H](N)C(=O)O

Key:
[1] = tested on: HIV-1IIIB in CEM-SS cells; test: Anti-HIV cytoprotection assay, acute infection model, MTS endpoint; type: cell-based; details: Table 17, HIV-1IIIB in CEM-SS cells, 6-day incubation, read-out: Antiviral activity EC50
Procedure: Anti-HIV activity of cyclosporine derivatives were evaluated by cytoprotection assay in an acute infection model using CEM-SS cells and either HIV-1IIIB or HIV-1 RF. Antiviral activity was determined as a reduction in virus-caused cytopathic effects when compounds prevent virus replication. Cytoprotection and compound cytotoxicity were evaluated using the tetrazollium dye MTS (Promega) to calculate cell viability following virus infection after 6-day incubation (Zhou G., et al., 2011, J. Med. Chem. 27, 7220-31; which is incorporated herein by reference).

[2] = Stability testing: epimerization of cyclosporin derivatives in methanol, monitored by HPLC; type: physicochemical; details: for Epimerization % after 168 hours: Table 11, MeOH at 50° C.-58° C.
[3] = Table 10, MeOH at 50° C., 29 hours
[4] = Table 10, MeOH at 50° C., 77 hours
[5] = Table 10, MeOH at 50° C., 125 hours

Compound: C/C=C/C[C@@H](C)[C@@H](O)[C@H]1C(=O)N[C@@H](CC)C(=O)N(C)[C@H](CSCCN(C)C)C(=O)N(C)[C@@H](CC(C)(C)O)C(=O)N[C@@H](C(C)C)C(=O)N(C)[C@@H](CC(C)C)C(=O)N[C@@H](C)C(=O)N[C@H](C)C(=O)N(C)[C@@H](CC(C)C)C(=O)N(C)[C@@H](CC(C)C)C(=O)N(C)[C@@H](C(C)C)C(=O)N1C (single isomer, unassigned)
pEC50 ([1]; Human immunodeficiency virus 1, 144 h): 6.93

Compound: C/C=C/C[C@@H](C)[C@@H](O)[C@H]1C(=O)N[C@@H](CC)C(=O)N(C)[C@H](COCCN(CC)CC)C(=O)N(C)[C@@H](CC(C)C)C(=O)N[C@@H](C(C)C)C(=O)N(C)[C@@H](CC(C)C)C(=O)N[C@@H](C)C(=O)N[C@H](C)C(=O)N(C)[C@@H](CC(C)C)C(=O)N(C)[C@@H](CC(C)C)C(=O)N(C)[C@@H](C(C)C)C(=O)N1C
Epimerization % after 168 hours [2]: 0%

Compound: C/C=C/C[C@@H](C)[C@@H](O)[C@H]1C(=O)N[C@@H](CC)C(=O)N(C)[C@H](COCCN(C)C)C(=O)N(C)[C@@H](CC(C)C)C(=O)N[C@@H](C(C)C)C(=O)N(C)[C@@H](CC(C)C)C(=O)N[C@@H](C)C(=O)N[C@H](C)C(=O)N(C)[C@@H](CC(C)C)C(=O)N(C)[C@@H](CC(C)C)C(=O)N(C)[C@@H](C(C)C)C(=O)N1C
Epimerization % after 168 hours [2]: 0%

Compound: Cc1cn([C@H]2C[C@H](N=[N+]=[N-])[C@@H](CO)O2)c(=O)[nH]c1=O [AZT]
pEC50 [1]: 8.05

Compound: C/C=C/C[C@@H](C)[C@@H](O)[C@H]1C(=O)N[C@@H](CC)C(=O)N(C)[C@H](CSCCCN(CC)CC)C(=O)N(C)[C@@H](CC(C)(C)O)C(=O)N[C@@H](C(C)C)C(=O)N(C)[C@@H](CC(C)C)C(=O)N[C@@H](C)C(=O)N[C@H](C)C(=O)N(C)[C@@H](CC(C)C)C(=O)N(C)[C@@H](CC(C)C)C(=O)N(C)[C@@H](C(C)C)C(=O)N1C
Epimerization % after 168 hours [2]: 0%

Compound: C/C=C/C[C@@H](C)[C@@H](O)[C@H]1C(=O)N[C@@H](CC)C(=O)N(C)[C@H](CSCCN(CC)CC)C(=O)N(C)[C@@H](CC(C)(C)O)C(=O)N[C@@H](C(C)C)C(=O)N(C)[C@@H](CC(C)C)C(=O)N[C@@H](C)C(=O)N[C@H](C)C(=O)N(C)[C@@H](CC(C)C)C(=O)N(C)[C@@H](CC(C)C)C(=O)N(C)[C@@H](C(C)C)C(=O)N1C
Epimerization % after 168 hours [2]: 0%

Compound: C/C=C/C[C@@H](C)[C@@H](O)[C@H]1C(=O)N[C@@H](CC)C(=O)N(C)[C@H](SCCN(CC)CC)C(=O)N(C)[C@@H](C(C)CC)C(=O)N[C@@H](C(C)C)C(=O)N(C)[C@@H](CC(C)C)C(=O)N[C@@H](C)C(=O)N[C@H](C)C(=O)N(C)[C@@H](CC(C)C)C(=O)N(C)[C@@H](CC(C)C)C(=O)N(C)[C@@H](C(C)C)C(=O)N1C (some centres unmarked) (cyclo(A[dA][NMeL][NMeL][NMeV][MeBmt][Abu][X6][NMeIle(3ξ)]V[NMeL]))
Epimerization % [2, 3]: ~4% | Epimerization % [2, 4]: ~10% | Epimerization % [2, 5]: ~16%

Compound: C/C=C/C[C@@H](C)[C@@H](O)[C@H]1C(=O)N[C@@H](CC)C(=O)N(C)[C@H](SCCN(C)C)C(=O)N(C)[C@@H](CC(C)C)C(=O)N[C@@H](C(C)C)C(=O)N(C)[C@@H](CC(C)C)C(=O)N[C@@H](C)C(=O)N[C@H](C)C(=O)N(C)[C@@H](CC(C)C)C(=O)N(C)[C@@H](CC(C)C)C(=O)N(C)[C@@H](C(C)C)C(=O)N1C [drawing 1930]
Epimerization % ([2]; Table 7, MeOH at 65° C., 2 hours): ~12% | Epimerization % ([2]; Table 7, MeOH at 65° C., 4 hours): ~19% | Epimerization % ([2]; Table 7, MeOH at 65° C., 6 hours): ~23%

Other lines, results leading:

Epimerization % in MeOH at 65° C. ([2]; Table 8, 2 hours): 0% | Epimerization % in MeOH at 65° C. ([2]; Table 8, 4 hours): 0% | Epimerization % in MeOH at 65° C. ([2]; Table 8, 6 hours): 0% | Epimerization % in MeOH at 65° C. ([2]; Table 8, 8 hours): Less than 1% | Epimerization % in MeOH at 65° C. ([2]; Table 8, 10 hours): ~10%
Compound: C/C=C/C[C@@H](C)[C@@H](O)[C@H]1C(=O)N[C@@H](CC)C(=O)N(C)[C@H](SCCCN2CCOCC2)C(=O)N(C)[C@@H](CC(C)(C)O)C(=O)N[C@@H](C(C)C)C(=O)N(C)[C@@H](CC(C)C)C(=O)N[C@@H](C)C(=O)N[C@H](C)C(=O)N(C)[C@@H](CC(C)C)C(=O)N(C)[C@@H](CC(C)C)C(=O)N(C)[C@@H](C(C)C)C(=O)N1C [drawing 1931]

Epimerization % [2, 3]: 0% | Epimerization % [2, 4]: 0% | Epimerization % [2, 5]: 0%
Compound: C/C=C/C[C@@H](C)[C@@H](O)[C@H]1C(=O)N[C@@H](CC)C(=O)N(C)[C@H](SCCCN2CCOCC2)C(=O)N(C)[C@@H](CC(C)(C)O)C(=O)N[C@@H](C(C)C)C(=O)N(C)[C@@H](CC(C)C)C(=O)N[C@@H](C)C(=O)N[C@H](C)C(=O)N(C)[C@@H](CC(C)C)C(=O)N(C)[C@@H](CC(C)C)C(=O)N(C)[C@@H](C(C)C)C(=O)N1C [drawing 1936]

Epimerization % [2, 3]: 0% | Epimerization % [2, 4]: 0% | Epimerization % [2, 5]: 0%
Compound: C/C=C/C[C@@H](C)[C@@H](O)[C@H]1C(=O)N[C@@H](CC)C(=O)N(C)[C@H](SCCCN(CC)CC)C(=O)N(C)[C@@H](CC(C)(C)OC)C(=O)N[C@@H](C(C)C)C(=O)N(C)[C@@H](CC(C)C)C(=O)N[C@@H](C)C(=O)N[C@H](C)C(=O)N(C)[C@@H](CC(C)C)C(=O)N(C)[C@@H](CC(C)C)C(=O)N(C)[C@@H](C(C)C)C(=O)N1C

Epimerization % in MeOH at 65° C. ([2]; Table 9, 2 hours): 0% | Epimerization % in MeOH at 65° C. ([2]; Table 9, 4 hours): 0% | Epimerization % in MeOH at 65° C. ([2]; Table 9, 10 hours): 0% | Epimerization % in MeOH at 65° C. ([2]; Table 9, 22 hours): 0% | Epimerization % in MeOH at 65° C. ([2]; Table 9, 30 hours): 0% | Epimerization % in MeOH at 65° C. ([2]; Table 9, 38 hours): 0%
Compound: C/C=C/C[C@@H](C)[C@@H](O)[C@H]1C(=O)N[C@@H](CC)C(=O)N(C)[C@H](SCCCN2CCOCC2)C(=O)N(C)[C@@H](CC(C)(C)OC)C(=O)N[C@@H](C(C)C)C(=O)N(C)[C@@H](CC(C)C)C(=O)N[C@@H](C)C(=O)N[C@H](C)C(=O)N(C)[C@@H](CC(C)C)C(=O)N(C)[C@@H](CC(C)C)C(=O)N(C)[C@@H](C(C)C)C(=O)N1C [drawing 1932]

Epimerization % [2, 3]: 0% | Epimerization % [2, 4]: 0% | Epimerization % [2, 5]: 0%
Compound: C/C=C/C[C@@H](C)[C@@H](O)[C@H]1C(=O)N[C@@H](CC)C(=O)N(C)[C@H](SCCCN2CCOCC2)C(=O)N(C)[C@@H](CC(C)(C)OC)C(=O)N[C@@H](C(C)C)C(=O)N(C)[C@@H](CC(C)C)C(=O)N[C@@H](C)C(=O)N[C@H](C)C(=O)N(C)[C@@H](CC(C)C)C(=O)N(C)[C@@H](CC(C)C)C(=O)N(C)[C@@H](C(C)C)C(=O)N1C [drawing 1937]

Epimerization % [2, 3]: 0% | Epimerization % [2, 4]: 0% | Epimerization % [2, 5]: 0%
Compound: C/C=C/C[C@@H](C)[C@@H](O)[C@H]1C(=O)N[C@@H](CC)C(=O)N(C)[C@H](SCCCN2CCOCC2)C(=O)N(C)[C@@H](C(C)C)C(=O)N[C@@H](C(C)C)C(=O)N(C)[C@@H](CC(C)C)C(=O)N[C@@H](C)C(=O)N[C@H](C)C(=O)N(C)[C@@H](CC(C)C)C(=O)N(C)[C@@H](CC(C)C)C(=O)N(C)[C@@H](C(C)C)C(=O)N1C (cyclo(A[dA][NMeL][NMeL][NMeV][MeBmt][Abu][X1][NMeV]V[NMeL]))
